Drawing on paper PMC9516332 (Frontiers in Oncology, 2022), this text covers inhibition for 2 compounds.

Each structure is given as a SMILES string. Where two headings read alike, the source gives them in different places.

Holding throughout (test): Kinase panel profiling at 1 µmol/L (MSA or IMAP), percentage inhibition
Assay type in all cases: biochemical

Test [1] concerns the target panel of 255 wild-type kinases (Homo sapiens, UniProt P08922). Particulars: read-out: %-inhibition at 1 µmol/L, ROS.
In test [2] the target is T1, panel of 255 wild-type kinases (Homo sapiens, UniProt O15111).
T1 sequence (O15111 1-745): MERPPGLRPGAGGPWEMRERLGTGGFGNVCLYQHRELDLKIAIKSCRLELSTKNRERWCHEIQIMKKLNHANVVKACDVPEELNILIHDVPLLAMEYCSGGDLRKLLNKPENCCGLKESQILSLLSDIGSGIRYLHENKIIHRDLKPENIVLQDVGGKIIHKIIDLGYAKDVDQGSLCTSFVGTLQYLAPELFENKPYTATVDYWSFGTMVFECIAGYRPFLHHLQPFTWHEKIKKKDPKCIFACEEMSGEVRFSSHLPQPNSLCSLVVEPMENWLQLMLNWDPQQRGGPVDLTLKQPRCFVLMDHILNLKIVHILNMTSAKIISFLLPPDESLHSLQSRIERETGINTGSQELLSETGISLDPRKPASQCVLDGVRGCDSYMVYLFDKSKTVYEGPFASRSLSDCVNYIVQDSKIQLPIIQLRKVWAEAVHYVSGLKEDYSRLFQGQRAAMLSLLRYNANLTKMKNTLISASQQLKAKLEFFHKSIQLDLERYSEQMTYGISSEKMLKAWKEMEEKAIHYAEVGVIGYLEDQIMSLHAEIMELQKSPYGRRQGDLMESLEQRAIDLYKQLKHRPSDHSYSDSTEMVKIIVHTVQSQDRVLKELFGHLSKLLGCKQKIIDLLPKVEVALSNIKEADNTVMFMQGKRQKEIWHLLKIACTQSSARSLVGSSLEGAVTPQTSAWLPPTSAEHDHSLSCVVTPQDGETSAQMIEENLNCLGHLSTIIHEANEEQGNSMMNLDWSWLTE
Particulars: kinase IKKα; 1 µmol/L single concentration; read-out: %-inhibition at 1 µmol/L, IKKα.

Test [3] addresses panel of 255 wild-type kinases (Homo sapiens, UniProt Q9UK32). Conditions: kinase RSK4; 1 µmol/L single concentration; read-out: %-inhibition at 1 µmol/L, RSK4.
The target in test [4] is T2, panel of 255 wild-type kinases (Homo sapiens, UniProt Q96L34).
T2 sequence (Q96L34 1-752): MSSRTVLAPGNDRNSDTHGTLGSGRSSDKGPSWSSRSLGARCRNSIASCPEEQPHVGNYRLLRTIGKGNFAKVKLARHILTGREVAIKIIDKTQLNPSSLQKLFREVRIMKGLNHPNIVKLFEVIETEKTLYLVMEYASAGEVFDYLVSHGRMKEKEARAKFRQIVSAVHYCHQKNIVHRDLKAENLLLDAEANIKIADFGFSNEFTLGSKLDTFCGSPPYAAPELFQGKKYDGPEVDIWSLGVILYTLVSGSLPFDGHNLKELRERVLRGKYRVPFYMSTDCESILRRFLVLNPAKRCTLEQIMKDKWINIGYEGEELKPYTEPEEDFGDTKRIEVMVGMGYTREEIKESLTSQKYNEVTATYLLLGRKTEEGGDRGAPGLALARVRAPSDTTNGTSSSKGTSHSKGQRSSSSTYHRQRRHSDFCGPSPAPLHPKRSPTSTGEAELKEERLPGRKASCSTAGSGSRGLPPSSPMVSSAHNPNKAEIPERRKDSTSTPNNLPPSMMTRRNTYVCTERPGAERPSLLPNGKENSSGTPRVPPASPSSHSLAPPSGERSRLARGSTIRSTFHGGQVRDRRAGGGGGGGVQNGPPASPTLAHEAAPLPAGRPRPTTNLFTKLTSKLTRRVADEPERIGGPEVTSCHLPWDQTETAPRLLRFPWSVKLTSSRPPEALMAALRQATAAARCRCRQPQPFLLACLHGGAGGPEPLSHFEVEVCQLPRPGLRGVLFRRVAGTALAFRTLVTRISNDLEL
Particulars: MARK4; 1 µmol/L single concentration; read-out: %-inhibition, MARK4.

The target of test [5] is panel of 255 wild-type kinases (Homo sapiens, UniProt Q15119). Particulars: kinase PDHK2; 1 µmol/L single concentration; read-out: %-inhibition at 1 µmol/L, PDHK2.
Test [6] concerns the target panel of 255 wild-type kinases (Homo sapiens, UniProt P22612). Particulars: kinase PKACγ; 1 µmol/L single concentration; read-out: %-inhibition at 1 µmol/L, PKACγ.
Test [7] has as its target T3, panel of 255 wild-type kinases (Homo sapiens, UniProt O00141).
T3 sequence (O00141 1-431): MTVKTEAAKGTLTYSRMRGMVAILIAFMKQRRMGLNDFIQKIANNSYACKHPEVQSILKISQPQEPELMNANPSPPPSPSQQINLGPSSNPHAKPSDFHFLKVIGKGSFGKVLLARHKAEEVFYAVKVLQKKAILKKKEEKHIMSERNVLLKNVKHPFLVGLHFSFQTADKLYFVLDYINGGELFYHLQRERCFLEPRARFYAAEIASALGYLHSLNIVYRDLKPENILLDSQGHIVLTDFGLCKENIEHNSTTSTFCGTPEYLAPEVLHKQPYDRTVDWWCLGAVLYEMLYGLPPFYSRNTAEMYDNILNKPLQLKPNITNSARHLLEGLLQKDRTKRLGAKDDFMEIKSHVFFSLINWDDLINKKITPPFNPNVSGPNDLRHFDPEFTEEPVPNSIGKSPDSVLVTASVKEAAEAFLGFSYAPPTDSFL
Conditions: kinase SGK; 1 µmol/L single concentration; read-out: %-inhibition at 1 µmol/L, SGK.

Test [8] addresses panel of 255 wild-type kinases (Homo sapiens, UniProt P10721). Conditions: kinase KIT; 1 µmol/L single concentration; read-out: %-inhibition at 1 µmol/L, KIT.
In test [9] the target is panel of 255 wild-type kinases (Homo sapiens, UniProt P11802). Conditions: CDK4/CycD3 kinase assay; 1 µmol/L single concentration; read-out: %-inhibition CDK4/CycD3.
The target of test [10] is panel of 255 wild-type kinases (Homo sapiens, UniProt O96013). Conditions: PAK4; 1 µmol/L single concentration; read-out: %-inhibition, PAK4.
Test [11] deals with panel of 255 wild-type kinases (Homo sapiens, UniProt Q13627). Particulars: kinase DYRK1A; 1 µmol/L single concentration; read-out: %-inhibition at 1 µmol/L, DYRK1A.

For the compound `CCc1nc(C(N)=O)c(Nc2ccc(N3CCC(N4CCN(C)CC4)CC3)c(OC)c2)nc1NC1CCOCC1` [gilteritinib], the inhibition at 1 µM was 100% in [1] (kinase ROS, 1 µmol/L single concentration); 2.16% in test [2]; 44% in test [3]; 53% in test [4]; 5% in test [5]; 5.41% in test [6]. Besides, the inhibition at 1 µM in [7] was determined as 8.52%; in test [8], 71%; in [9] it was 46%; in test [10], 74%; in test [11] it was 18%.

For the compound `O=C(Nc1cnn2ccc(N3CCC[C@@H]3c3cc(F)ccc3F)nc12)N1CC[C@H](O)C1` [larotrectinib], the inhibition at 1 µM was 86% in test [1]; 2.45% in [2]; -7% in [3]; -6.42% in test [4]; 5% in [5]; -4% in test [6]. Moreover, the inhibition at 1 µM in [7] was -1.16%; in test [8], -5%; in [9], -0.745%; in [10] it was -4.61%; in test [11] it was -4.7%.
